Results on one molecule are retold here after patent US20120165403A1, “METHODS OF INHIBITING THE ACTIVITY OF HSP90 AND/OR ARYL HYDROCARBON RECEPTOR” (UNIVERSITY OF ROCHESTER, priority 2004, published 2012).

In one series the target is T1, XAP2 (Mus musculus, UniProt O08915).
T1 construct: His tag; made in house; host or cells: TNT rabbit reticulocyte lysate; partly purified on TALON cobalt resin
T1 sequence (O08915 1-330): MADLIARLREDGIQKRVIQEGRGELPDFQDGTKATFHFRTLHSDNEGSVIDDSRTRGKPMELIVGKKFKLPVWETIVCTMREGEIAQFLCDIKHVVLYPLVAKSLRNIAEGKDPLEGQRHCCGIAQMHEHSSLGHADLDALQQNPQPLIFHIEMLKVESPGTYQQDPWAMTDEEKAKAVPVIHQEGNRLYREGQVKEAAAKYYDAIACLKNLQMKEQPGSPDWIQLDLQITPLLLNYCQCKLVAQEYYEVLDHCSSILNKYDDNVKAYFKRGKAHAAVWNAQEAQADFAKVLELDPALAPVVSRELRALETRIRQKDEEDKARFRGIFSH
Briefly: Affinity chromatography on EGCG-conjugated Sepharose, XAP2. The class given is binding. The text has this:
Murine AhR and ARNT cDNA (obtained from J. Whitlock and O. Hankinson, respectively) were inserted into pcDNA3 (Invitrogen, Carlsbad, Calif.). Chicken hsp90 constructs (FIG. 5), c90711hsp (wild-type), c90G94D (wild-type point mutant gly94→Asp (Grenert et al., J. Biol. Chem. 272:23843-23850 (1997), which is hereby incorporated by reference in its entirety), c90D92A (wild-type point mutant Asp92→Ala (Sullivan et al., J. Biol. Chem. 268:20373-20379 (1993), which is hereby incorporated by reference in its entirety), c90N221 (wild-type truncation mutant encoding a.a. 221-728 (Sullivan et al., J. Biol. Chem. 268:20373-20379 (1993), which is hereby incorporated by reference in its entirety)), c90N303 (a.a. 303-728) and c90N538 (a.a. 538-728) were kind gifts from Dr. D. Toft (Rochester, Minn.). The C-terminal truncation mutant c900507 (a.a. 1-221) was obtained from Dr. L. Neckers (Rockville, Md.) (Grenert et al., J. Biol. Chem. 272:23843-23850 (1997); Marcu et al., J. Biol. Chem. 275:37181-37186 (2000), which are hereby incorporated by reference in their entirety). Human p23 cDNA was excised from pQE80-p23 (obtained from W. Chan Stockton, Calif.) by sequential digests using the restriction enzymes Sad (3′-end) and BamHI (5′-end) and inserted into the similarly digested pET28a (Novagen, Madison, Wis.). The mouse histidine-tagged XAP2 construct, pET-AIP (Bell et al., J. Biol. Chem. 275:36407-36414 (2000), which is hereby incorporated by reference in its entirety), was a kind gift from Dr. D. Bell (Nottingham, UK). All constructs are in the T7 orientation with the exception of c900507, which is driven by an SP6 promoter.
AhR, ARNT, hsp90 (wild-type, point mutants, and truncation mutants), p23, and XAP2 were generated (separately) by coupled transcription/translation in rabbit reticulocyte lysate (RRL) using the TNT® system according to the manufacturer's protocol (Promega, Madison Wis.). In this system, ^35S-methionine was included in the transcription/translation mix to generate ^35S-labeled protein.
Immobilized Metal Affinity Chromatography (IMAC) Purification of Histidine-Tagged XAP2. The TALON IMAC method was used for purification of XAP2 from RRL following a modified protocol (Clonetech). A 500 μL (50% slurry) of cobalt resin was washed at room temperature three times with TALON buffer (50 mM Na2PO4, 300 mM NaCl, pH 7.0) according to the manufacturer's protocol. A 175 μL aliquot of undiluted ^35S-XAP2 in RRL was added to a 15 ml conical tube containing the washed resin in TALON buffer for 20 minutes at room temperature end-over-end. […] Each aliquot was collected separately and analyzed for the presence of ^35S-XAP2 by SDS-PAGE followed by Phosphorimaging (PSI; Molecular Dynamics, Sunnyvale, Calif.). […]

Series [1] deals with TCDD induced luciferase activity (human CYP1A1 promoter). The series is described as follows: Luciferase reporter gene assay in HepG2.101L cells. The class given is cell-based. As for the experimental part: The human hepatoma cell line HepG2 were stably transfected with a luciferase expression vector downstream from exon one, a portion of intron one, and 1612 base pairs of the 5′-flanking sequence of the human CYP1A gene to generate the cell line HepG2.101L, as previously described (Postlind et al., Toxicol. Appl. Pharmacol 118:255-262 (1993), which is hereby incorporated by reference in its entirety). Cells were grown in Dulbecco's modified Eagle's medium (Mediatech Herndon, Va.) supplemented with 10% fetal bovine serum and Gentamicin (DMEM) at 37° C. in a humid atmosphere with 5% CO2. Treatment and reporter gene activity were assessed as previously described (Palermo et al., Chem. Res. Toxicol. 16:865-872 (2003), which is hereby incorporated by reference in its entirety) with the following changes: HepG2.101L cells were added to hydrated Cytodex™ microcarrier beads (Sigma) to achieve 1.5×10^6 cells per 30 mg beads per 10 ml DMEM. Luminescence was detected using the Packard Lumicount™ (Meriden, Conn.).

As a reminder, the IC50 is the concentration needed to halve the response being measured. For the molecule `O=C(O[C@@H]1Cc2c(O)cc(O)cc2O[C@@H]1c1cc(O)c(O)c(O)c1)c1cc(O)c(O)c(O)c1` [EGCG, epigallocatechin gallate], the “binding of XAP2 to EGCG-Sepharose” value on XAP2 (35S-XAP2 in RRL) is recorded as “eluted from EGCG-Sepharose”; on XAP2 (Hepa cytosol) it was “also eluted from EGCG-Sepharose”. The “binding of purified XAP2 to immobilized EGCG” value on XAP2 (His-purified XAP2, devoid of detectable hsp90) is “not specifically eluted from immobilized EGCG”. Also, the “binding of purified XAP2 after reconstitution” value at XAP2 (His-purified XAP2 with purified hsp90 or RRL) is reported as “restores XAP2 elution”. Also, in series [1] (500 pM TCDD, 4 h, read-out: IC50, inhibition of TCDD induced luciferase activity), the 50% inhibitory concentration (IC50) is about 100 µM. The “induction of luciferase activity, treatment alone” value in series [1] (EGCG alone) is recorded as “did not induce luciferase activity significantly over background”.
